Results as given in ChEMBL document CHEMBL1132052, “Solid-phase synthesis of benzisothiazolones as serine protease inhibitors” (Bioorg Med Chem Lett, 1999).

Target: Tryptase (Homo sapiens, UniProt Q9BZJ3+Q15661+Q9NRR2)
Test: Compound was tested for inhibition of human mast cell tryptase
Assay type: protein assay

Compound | IC50 [nM]
COc1ccc(CNC(=O)CCCC(=O)OCN2C(=O)c3ccccc3S2(=O)=O)cc1 | 430
O=C(CCCC(=O)OCN1C(=O)c2ccccc2S1(=O)=O)NCc1ccc(Cl)c(Cl)c1 | 230
